From publication PMC6108078 (Chemical research in toxicology, 2018)
Several values for one entry are separate records, joined by “and”; a condition that tells them apart may be missing. Identical values can stand only once. Like-named read-outs stand apart in the source and are kept apart here. Blank lines part the entries; values can stand above or below the compound they belong to.

Key:
[1] = for decrease of M5 formation compared to vehicle control: furafylline 25 μM, quinidine 2 μM
[2] = GSH trapping in pooled human liver microsomes; format: in vitro ADME; details: microsomal incubations in the absence of NADPH supplementation
[3] = patients taking sunitinib; cited from earlier work
HepG2 cells = details: treatment of HepG2 cells; cited from earlier work
P450 3A4 = P450 3A4 (Homo sapiens, UniProt P08684); assay: Kinetics of sunitinib metabolite formation by recombinant P450 3A4; format: in vitro ADME; details: sunitinib N-deethylation (M1 formation), recombinant enzymes
Chain of P450 3A4 (P08684 whole entry): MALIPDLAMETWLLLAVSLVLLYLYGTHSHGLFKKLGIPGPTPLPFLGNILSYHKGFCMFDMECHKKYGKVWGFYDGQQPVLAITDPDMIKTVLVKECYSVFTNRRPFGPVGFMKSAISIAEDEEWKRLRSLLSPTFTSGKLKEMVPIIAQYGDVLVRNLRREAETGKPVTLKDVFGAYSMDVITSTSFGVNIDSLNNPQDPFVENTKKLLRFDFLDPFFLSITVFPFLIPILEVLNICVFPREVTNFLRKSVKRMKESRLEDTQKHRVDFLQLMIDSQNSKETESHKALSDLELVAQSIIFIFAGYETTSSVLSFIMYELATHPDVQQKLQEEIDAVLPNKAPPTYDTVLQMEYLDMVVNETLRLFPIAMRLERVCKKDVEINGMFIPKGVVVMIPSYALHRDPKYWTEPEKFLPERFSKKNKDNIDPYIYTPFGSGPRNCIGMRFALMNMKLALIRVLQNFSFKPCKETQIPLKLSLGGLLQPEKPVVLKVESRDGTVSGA

[4] = format: in vitro ADME, human
[5] = mass balance studies in humans; cited from earlier work
[6] = monkeys administered [14C]sunitinib L-malate; ref sunitinib NDA document, 9; cited from earlier work
[7] = cited from earlier work
[8] = sunitinib 10 μM, 0.1 mg/mL, GSH 5 mM, 10 min, ketoconazole 1 μM, CYP3cide 2 μM, mean ± SD, n = 3
[9] = in the absence of dGSH, sunitinib 25 μM, 1 mg/mL, 30 min
[10] = in the presence of dGSH (1 mM), sunitinib 25 μM, 1 mg/mL, 30 min

Structure (SMILES): CCN(CC)CCNC(=O)c1c(C)[nH]c(/C=C2\C(=O)Nc3ccc(F)cc32)c1C [sunitinib]
direct GSH conjugation of parent drug (Sun–SG) [2]: evidence for the direct conjugation of GSH to the parent drug
occurrence of clinically significant liver injury [3]: 3–4 % of patients
occurrence of liver failure [3]: 0.3 % of patients
hepatocellular toxicity effects (HepG2 cells): increase the production of reactive oxygen species, disrupt the mitochondrial membrane potential, deplete glutathione content, and induce apoptosis in a concentration-dependent manner

Structure (SMILES): CC(=O)N1CCN(c2ccc(OCC3COC(Cn4ccnc4)(c4ccc(Cl)cc4Cl)O3)cc2)CC1 (centres unmarked) [ketoconazole]
decrease of M5 formation compared to vehicle control [1, 8]: 52 ± 4%
decrease of M1 levels compared to vehicle control [1, 8]: 88% and 88 ± 5%
decrease of M3 levels compared to control [1, 8]: 40 ± 9%

Structure (SMILES): CCNCCNC(=O)c1c(C)[nH]c(/C=C2\C(=O)Nc3ccc(F)cc32)c1C [M1, N-desethylsunitinib]
fold higher efficiency (kcat/Km) of P450 3A4 compared to P450 1A2 (P450 3A4): ~5 fold
M1 share of the metabolic turnover of sunitinib [4, 9]: 70%
ratio of M1 to sunitinib UV peak area [4, 9]: 0.70
M1 share of the metabolic turnover of sunitinib [4, 10]: 41%
ratio of M1 to sunitinib (UV peak area at 420–440 nm) [4, 10]: 0.41
M1 share of sunitinib metabolic turnover in human liver microsomes ([4]; summary statement in discussion): ≥ 41%
fold higher M1 levels in the absence of dGSH compared to in the presence of dGSH ([4]; sunitinib 25 μM, 1 mg/mL, 30 min, UV absorbance peak area at 430 nm, n = 2-3): 2.5 fold
share of the total dose [5]: 32–52%
share of the total radioactivity recovered in feces [6]: 20–40%
activity relative to parent drug [7]: equal to that of the parent drug

Results, then the compound that gave them:

effect on formation of M3 and M5 ([1]; initial experiments, coincubation with sunitinib, data not shown): significantly increased
increase of M3 levels compared to control ([1]; sunitinib 10 μM, 0.1 mg/mL, GSH 5 mM, 10 min, α-naphthoflavone 1 μM, mean ± SD, n = 3): 41 ± 17%
Structure (SMILES): O=c1cc(-c2ccccc2)oc2c1ccc1ccccc12 [α-naphthoflavone]

decrease of M5 formation compared to vehicle control [1, 8]: 62% and 62 ± 17%
Structure (SMILES): Cc1nc2c([nH]1)c(=O)n(C)c(=O)n2Cc1ccco1 [furafylline]
